Measurements reported in ChEMBL document CHEMBL4622974, “Leveraging an Open Science Drug Discovery Model to Develop CNS-Penetrant ALK2 Inhibitors for the Treatment of Diffuse Intrinsic Pontine Glioma” (J Med Chem, 2020).

Legend:
[1] = target: T1, Activin receptor type-1 (Homo sapiens, UniProt Q04771); experiment: Competitive displacement of PBI-6908 from nanoluciferase-fused ALK2 (unknown origin) expressed in HEK293 cells incubated for 2 hrs by NanoBRET NanoGlo substrate based NanoBRET assay; type: cell-based
T1 sequence (Q04771 whole entry): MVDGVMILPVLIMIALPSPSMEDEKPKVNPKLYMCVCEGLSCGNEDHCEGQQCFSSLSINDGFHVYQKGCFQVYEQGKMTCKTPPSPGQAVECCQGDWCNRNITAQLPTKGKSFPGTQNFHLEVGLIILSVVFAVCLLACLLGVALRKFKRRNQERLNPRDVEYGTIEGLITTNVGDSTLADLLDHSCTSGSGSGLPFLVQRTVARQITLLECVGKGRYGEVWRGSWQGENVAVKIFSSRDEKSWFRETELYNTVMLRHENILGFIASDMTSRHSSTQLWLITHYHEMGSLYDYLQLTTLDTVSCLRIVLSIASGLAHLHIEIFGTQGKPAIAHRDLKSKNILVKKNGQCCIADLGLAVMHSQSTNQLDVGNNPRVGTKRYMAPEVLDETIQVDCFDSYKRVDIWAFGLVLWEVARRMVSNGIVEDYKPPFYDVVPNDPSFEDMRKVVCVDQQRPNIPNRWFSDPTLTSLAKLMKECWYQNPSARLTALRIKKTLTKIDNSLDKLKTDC

[2] = Apparent permeability across basolateral to apical side in human Caco2 cells at 5 uM after 120 mins by LC-MS/MS analysis; type: ADME, cell-based; conditions: Caco-2
[3] = Half life in human liver microsomes at 1 uM incubated for 60 mins by LC/MS analysis; type: ADME, Microsome
[4] = target: Voltage-gated inwardly rectifying potassium channel KCNH2 (Homo sapiens, UniProt Q12809); experiment: Inhibition of human ERG expressed in HEK293 cells after 5 mins by IonWorks barracuda patch clamp method; type: cell-based
[5] = Volume of distribution at steady state in CB17 SCID mouse at 2 mg/kg, iv after 0.25 to 24 hrs by LC/MS/MS method; type: ADME, organism-based; conditions: in vivo, read-out: Vdss
[6] = Apparent permeability across apical to basolateral side in human Caco2 cells at 5 uM after 120 mins by LC-MS/MS analysis; conditions: Caco-2
[7] = Clearance in CB17 SCID mouse at 2 mg/kg, iv after 0.25 to 24 hrs by LC/MS/MS method; type: ADME, organism-based; conditions: in vivo
[8] = target: T1, Activin receptor type-1; experiment: Inhibition of human ALK2 using casein as substrate in presence of [gamma-33P]-ATP by radiometric hotspot assay
[9] = Stability in human liver microsomes assessed as compound remaining at 1 uM incubated for 60 mins by LC/MS analysis; type: ADME, Microsome; conditions: read-out: Stability
[10] = Stability in CD1 mouse liver microsomes assessed as compound remaining at 1 uM incubated for 60 mins by LC/MS analysis; type: ADME, Microsome; conditions: read-out: Stability
[11] = Toxicity in CB17 SCID mouse assessed as induction of adverse effect at 10 mg/kg, po; type: organism-based; conditions: in vivo
[12] = Efflux ratio of apparent permeability across basolateral to apical over apical to basolateral side in human Caco2 cells at 5 uM incubated for 2 hrs by LC/MS/MS analysis; conditions: Caco-2
[13] = Toxicity in CB17 SCID mouse assessed as induction of adverse effect at 2 mg/kg, iv; type: organism-based; conditions: in vivo
[14] = Oral bioavailability in CB17 SCID mouse at 10 mg/kg after 0.25 to 24 hrs by LC/MS/MS method; type: ADME, organism-based; conditions: in vivo
[15] = target: T2, Activin receptor type-1B (Homo sapiens, UniProt P36896); experiment: Inhibition of human ALK4 using casein as substrate in presence of [gamma-33P]-ATP by radiometric hotspot assay; type: ADME
T2 sequence (P36896 whole entry): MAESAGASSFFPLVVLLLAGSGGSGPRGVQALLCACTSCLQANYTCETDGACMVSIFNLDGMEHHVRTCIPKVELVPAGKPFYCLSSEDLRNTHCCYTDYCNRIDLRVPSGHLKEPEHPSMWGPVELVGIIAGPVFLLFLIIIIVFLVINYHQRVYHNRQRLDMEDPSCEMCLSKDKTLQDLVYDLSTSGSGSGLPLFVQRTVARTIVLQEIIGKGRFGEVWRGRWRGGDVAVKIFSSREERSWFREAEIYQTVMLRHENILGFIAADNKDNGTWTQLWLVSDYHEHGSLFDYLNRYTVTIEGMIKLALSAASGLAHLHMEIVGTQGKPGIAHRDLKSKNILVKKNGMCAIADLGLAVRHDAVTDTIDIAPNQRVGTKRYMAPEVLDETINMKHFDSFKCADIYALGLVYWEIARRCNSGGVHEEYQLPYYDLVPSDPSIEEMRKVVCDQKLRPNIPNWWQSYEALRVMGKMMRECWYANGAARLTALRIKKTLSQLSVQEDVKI

[16] = AUCinfinity in CB17 SCID mouse at 10 mg/kg, po after 0.25 to 24 hrs by LC/MS/MS method; type: ADME, organism-based; set-up: dose 10 mg/kg, time infinity, route oral; conditions: in vivo
[17] = Ratio of drug level in brain to plasma in CB17 SCID mouse at 10 mg/kg, po measured at 4 h; type: ADME, organism-based; conditions: brain and plasma, read-out: BPR
[18] = target: T3, TGF-beta receptor type-1 (Homo sapiens, UniProt P36897); experiment: Inhibition of recombinant human ALK5 expressed in HEK293 cells transfected with CAGA-luciferase and Renilla luciferase reporter after 24 hrs by dual luciferase reporter assay; type: cell-based
T3 sequence (P36897 whole entry): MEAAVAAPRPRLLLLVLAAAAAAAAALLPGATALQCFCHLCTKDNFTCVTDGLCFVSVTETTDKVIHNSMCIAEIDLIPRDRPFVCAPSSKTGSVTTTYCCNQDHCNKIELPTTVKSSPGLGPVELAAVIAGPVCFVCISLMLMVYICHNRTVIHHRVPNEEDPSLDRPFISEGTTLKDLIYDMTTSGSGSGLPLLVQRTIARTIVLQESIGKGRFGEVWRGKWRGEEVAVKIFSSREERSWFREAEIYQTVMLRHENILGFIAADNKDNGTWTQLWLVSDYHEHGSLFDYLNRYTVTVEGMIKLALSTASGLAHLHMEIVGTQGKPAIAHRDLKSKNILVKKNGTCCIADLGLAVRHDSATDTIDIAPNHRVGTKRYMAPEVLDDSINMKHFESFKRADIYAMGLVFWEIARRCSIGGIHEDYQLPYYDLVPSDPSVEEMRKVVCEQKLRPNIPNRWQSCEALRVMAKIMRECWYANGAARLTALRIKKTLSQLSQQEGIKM

[19] = Cmax in CB17 SCID mouse at 10 mg/kg, po after 0.25 to 24 hrs by LC/MS/MS method; type: ADME, organism-based; set-up: dose 10 mg/kg, route oral; conditions: in vivo
[20] = Half life in CB17 SCID mouse at 10 mg/kg, po after 0.25 to 24 hrs by LC/MS/MS method; type: ADME, organism-based; conditions: in vivo
[21] = target: T3, TGF-beta receptor type-1; experiment: Inhibition of human ALK5 using casein as substrate in presence of [gamma-33P]-ATP by radiometric hotspot assay; type: ADME
[22] = Half life in CD1 mouse liver microsomes at 1 uM incubated for 60 mins by LC/MS analysis; type: ADME, Microsome
[23] = Plasma concentration in NOD/SCID mouse at 25 mg/kg, po measured after 0.5 to 6 hrs; type: ADME, organism-based; conditions: in vivo
[24] = Oral bioavailability in BALB/c mouse at 5 mg/kg by LC-MS/MS analysis; type: ADME, organism-based; conditions: in vivo
[25] = Ratio of drug level in brain to plasma in NOD/SCID mouse at 25 mg/kg, po measured at 2 hr post dose on day 14 by LC-MS/MS analysis; type: ADME, organism-based; conditions: read-out: BPR
[26] = Drug level in NOD/SCID mouse brain at 25 mg/kg, po measured at 2 hr post dose on day 14 by LC-MS/MS analysis; type: ADME, organism-based; conditions: read-out: Drug uptake
[27] = Half life in BALB/c mouse at 5 mg/kg, po by LC-MS/MS analysis; type: ADME, organism-based; conditions: in vivo
[28] = Drug uptake in NOD/SCID mouse at 25 mg/kg, po measured after 0.5 to 6 hrs; type: ADME, organism-based; conditions: in vivo

Chain of Voltage-gated inwardly rectifying potassium channel KCNH2 (Q12809 whole entry): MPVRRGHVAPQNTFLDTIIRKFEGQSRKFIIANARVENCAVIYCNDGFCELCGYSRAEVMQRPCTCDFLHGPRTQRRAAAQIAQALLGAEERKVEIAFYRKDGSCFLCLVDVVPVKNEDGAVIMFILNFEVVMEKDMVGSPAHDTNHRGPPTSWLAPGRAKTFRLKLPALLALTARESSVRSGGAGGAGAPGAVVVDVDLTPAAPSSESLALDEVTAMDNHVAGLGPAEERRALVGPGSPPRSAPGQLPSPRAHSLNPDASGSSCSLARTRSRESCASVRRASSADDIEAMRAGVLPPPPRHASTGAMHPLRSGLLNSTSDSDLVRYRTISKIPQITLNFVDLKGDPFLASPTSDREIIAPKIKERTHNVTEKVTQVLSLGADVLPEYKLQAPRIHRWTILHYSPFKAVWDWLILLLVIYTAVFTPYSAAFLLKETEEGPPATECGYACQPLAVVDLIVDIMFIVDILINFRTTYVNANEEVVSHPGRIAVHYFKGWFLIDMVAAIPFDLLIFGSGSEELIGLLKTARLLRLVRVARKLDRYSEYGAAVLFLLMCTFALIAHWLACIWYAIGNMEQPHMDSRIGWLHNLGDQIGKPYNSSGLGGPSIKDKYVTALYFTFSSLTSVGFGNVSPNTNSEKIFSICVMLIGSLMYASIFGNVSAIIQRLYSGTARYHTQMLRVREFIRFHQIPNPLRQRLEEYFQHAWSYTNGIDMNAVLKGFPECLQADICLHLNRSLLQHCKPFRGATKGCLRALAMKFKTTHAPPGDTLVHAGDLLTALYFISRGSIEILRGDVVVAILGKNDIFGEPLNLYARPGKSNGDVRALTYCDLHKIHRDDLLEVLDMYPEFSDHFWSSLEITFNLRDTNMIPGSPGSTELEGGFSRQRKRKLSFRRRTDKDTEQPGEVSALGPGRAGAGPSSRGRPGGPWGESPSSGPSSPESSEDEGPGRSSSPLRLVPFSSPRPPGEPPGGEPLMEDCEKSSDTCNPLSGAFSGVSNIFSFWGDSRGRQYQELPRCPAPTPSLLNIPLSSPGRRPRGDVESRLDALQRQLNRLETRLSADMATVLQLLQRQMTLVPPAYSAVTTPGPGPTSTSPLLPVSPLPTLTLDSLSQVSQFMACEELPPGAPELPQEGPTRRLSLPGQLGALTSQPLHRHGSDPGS

With COc1cc(-c2cncc(-c3ccc(C4=CCNCC4)cc3)c2C)cc(OC)c1OC as the compound, how does the IC50 [1] read?
The IC50 was 47 nM.

And the Papp B→A at 2 h, 5 µM [2]?
Its Papp B→A at 2 h, 5 µM is 3.9 ×10⁻⁶ cm/s.

And the half-life at 1 µM [3]?
The half-life at 1 µM was over 1 h.

What about the IC50 [4] of the same compound?
The IC50 was 3400 nM.

And the Vd [5]?
The Vd was 1.66 L/kg.

And the Papp A→B at 2 h, 5 µM [6]?
Its Papp A→B at 2 h, 5 µM is 2.9 ×10⁻⁶ cm/s.

And the clearance [7]?
The clearance was 3.84 mL/min/kg.

What about the IC50 [8] of the same compound?
Its IC50 is 5 nM.

And the remaining at 1 h, 1 µM [9]?
Its remaining at 1 h, 1 µM is 68%.

And the remaining at 1 h, 1 µM [10]?
The remaining at 1 h, 1 µM was 73.9%.

And the Activity [11]?
Its Activity is “Non-Toxic”.

What about the efflux ratio at 2 h, 5 µM [12] of the same compound?
Its efflux ratio at 2 h, 5 µM is 1.3.

What about the Activity [13] of the same compound?
The Activity was “Non-Toxic”.

And the bioavailability [14]?
The bioavailability was 79%.

What about the IC50 [15] of the same compound?
The IC50 was over 2000 nM.

What about the AUC(0-inf) [16] of the same compound?
The AUC(0-inf) was 82.5 µM·h.

And the Kp at 4 h [17]?
Its Kp at 4 h is 0.43.

What about the IC50 [18] of the same compound?
Its IC50 is 7530 nM.

And the Cmax [19]?
The Cmax was 6.62 µM.

What about the half-life [20] of the same compound?
Its half-life is 6.02 h.

What about the IC50 [21] of the same compound?
Its IC50 is over 5000 nM.

And the half-life at 1 µM [22]?
Its half-life at 1 µM is over 1 h.

For COc1cc(-c2cncc(-c3ccc(N4CCNCC4)cc3)c2C)cc(OC)c1OC, which concentration [23] is on record?
Its concentration is 9.11 µM.

What does the source list for COc1cc(-c2cc(-c3ccc(N4CCNCC4)cc3)cnc2C)cc(OC)c1OC?
bioavailability [24]: 75%; Kp at 2 h [25]: 0.8; concentration at 2 h [26]: 10.9 µM; half-life [27]: 3.91 h

For COc1cc(-c2cncc(-c3ccc(N4CCNCC4)cc3)c2C)cc(OC)c1OC.CS(=O)(=O)O, which Drug uptake [28] is on record?
The Drug uptake was “Active”.
